19 compounds from US9233978B2, “6-fused heteroaryldihydropyrimidines for the treatment and prophylaxis of hepatitis B virus infection” (Hoffmann-La Roche Inc., priority 2014, dated 2016) can be followed below.

In one series the test system is HBV. Put plainly: Anti-HBV activity in vitro, HepG2.2.15 cells, extracellular HBV DNA by qPCR. It is filed as cell-based. The note with it: Hepatitis B virus, HepG2.2.15, 120 h, HepG2.2.15 cells; HBV replication inhibited by 50%, extracellular HBV DNA by qPCR; five days after compound treatment; read-out: EC50. The source says:
HepG2.2.15 and HepDE19 are stably-transfected cell lines containing the HBV genome. Both cell lines are derived from the hepatoblastoma cell line Hep G2 (American Type Culture Collection, ATCC® HB-8065™) by the published procedures described in references: MA Selles et al. Proc. Natl. Acad. Sci. USA 1987, 84, 1005-1009 and H Guo et al. Journal of Virology 2007, 81, 12472-12484, respectively. Both cell lines were maintained in Dulbecco's modified Eagle's medium (DMEM)-F12 medium supplemented with 10% fetal bovine serum, 100 U/mL penicillin, 100 μg/mL streptomycin, and 0.5 mg/mL of G418.
While HepG2.2.15 cells constitutively support HBV replication and production of virus particles, HepDE19 cells are inducible by tetracycline. Addition of 1 μg/mL tetracycline in culture medium suppresses HBV replication in HepDE19 cells, whereas switching to tetracycline-free medium resumes this process.
HepG2.2.15 cells were seeded into 96-well plates (3×10^4 cells in 100 μL media per well) and incubated overnight at 37° C. The test compounds were serially half-log diluted in DMSO, then diluted 100 times in culture media. 100 μL of diluted compounds were added into the plates to reach 0.5% final concentration of DMSO in every well. Five days after compound treatment, culture supernatant was collected for further analysis.
For quantitative PCR detection of extracellular HBV DNA, 100 μL of culture supernatant was collected and processed in MagNA Pure 96 Nucleic Acid Purification System (Roche Applied Science) for viral DNA extraction. The extracted samples were subjected to HBV DNA quantification by qPCR.
(In general: In qPCR the cycle at which signal appears reflects the starting amount.)

The nature of another series: Lysa solubility. The class given is physicochemical. The note with it: 0.05 M phosphate buffer (pH 6.5); for solubility thermodynamic: phosphate buffer, pH 6.5, aqueous buffer, thermodynamic from solid. How it is done: Samples were prepared in duplicate from 10 mM DMSO stock solutions. After evaporation of DMSO with a centrifugal vacuum evaporator, the residue was solved in 0.05 M phosphate buffer (pH 6.5), stirred for one hour and shook for two hours. After one night, the solution was filtered using a microtiter filter plate. Then the filtrate and its 1/10 dilution were analyzed by direct UV measurement or by HPLC-UV. […] The results were in μg/mL. In case the percentage of sample measured in solution after evaporation divided by the calculated maximum of sample amount was over 80%, the solubility was reported as higher than this value.

Values after ≈ are worked out from the molar mass of the structure shown. Where only a bound is given, the exact number is not on record here.

For `CCOC(=O)C1=C(CN2CCN3C(=O)N([C@@H]4CCCC4C(=O)O)C[C@@H]3C2)NC(c2nccs2)=N[C@H]1c1cccc(F)c1Cl` (stereo in doubt) [Example 49, (1S,2R)-2-[(8aS)-7-[[(4R)-4-(2-chloro-3-fluoro-phenyl)-5-ethoxycarbonyl-2-thiazol-2-yl-1,4-dihydropyrimidin-6-yl]methyl]-3-oxo-5,6,8,8a-tetrahydro-1H-imidazo[1,5-a]pyrazin-2-yl]cyclopentanecarboxylic acid], the half-maximal effective concentration (EC50) in the series with HBV is 8 nM. The thermodynamic solubility in “Lysa solubility” came to 312 µg/mL (≈ 494 µM).
As for `COC(=O)C1=C(CN2CCN3C(=O)N(C4(CC(=O)O)CC4)CC3C2)NC(c2nccs2)=N[C@H]1c1ccc(F)cc1Cl` (stereo in doubt) [Example 47, 2-[1-[(8aR)-7-[[(4R)-4-(2-chloro-4-fluoro-phenyl)-5-methoxycarbonyl-2-thiazol-2-yl-1,4-dihydropyrimidin-6-yl]methyl]-3-oxo-5,6,8,8a-tetrahydro-1H-imidazo[1,5-a]pyrazin-2-yl]cyclopropyl]acetic acid], the half-maximal effective concentration (EC50) in the series with HBV came to 51 nM. Also, the thermodynamic solubility in the series “Lysa solubility” was more than 767 µg/mL.
Regarding `CCOC(=O)C1=C(CN2CCN3C(=O)N(C(C)C)C[C@H]3[C@@H]2C(=O)O)NC(c2nccs2)=N[C@H]1c1cccc(F)c1Cl` (single isomer, unassigned) [Example 84A], in the series on HBV, the EC50 came out at 45 nM. For the same compound, the “Lysa” value in the series “Lysa solubility” came out at 570 µg/mL.
In the case of `COC(=O)C1=C(CN2CCN3C(=O)N(C4CC4)C[C@H]3[C@@H]2C(=O)O)NC(c2nccs2)=N[C@H]1c1ccc(F)c(F)c1C` (single isomer, unassigned) [Example 83A], the “Lysa” value in the series “Lysa solubility” is more than 740 µg/mL.
`CCOC(=O)C1=C(CN2CCN3C(=O)N(CCC(=O)O)C[C@@H]3C2)NC(c2nccs2)=N[C@H]1c1cccc(F)c1Cl` [Example 56, (R)-6-[(S)-2-(2-Carboxy-ethyl)-3-oxo-hexahydro-imidazo[1,5-a]pyrazin-7-ylmethyl]-4-(2-chloro-3-fluoro-phenyl)-2-thiazol-2-yl-1,4-dihydro-pyrimidine-5-carboxylic acid ethyl ester]: the EC50 in the series with HBV stood at 26 nM. The compound also returned a solubility (thermodynamic) in the series “Lysa solubility” of more than 740 µg/mL.
On to `CCOC(=O)C1=C(CN2CCN3C(=O)NC[C@H]3C2)NC(c2nccs2)=N[C@H]1c1ccc(F)cc1Br` [Example 13, Ethyl (4R)-6-[[(8aS)-3-oxo-1,2,5,6,8,8a-hexahydroimidazo[1,5-a]pyrazin-7-yl]methyl]-4-(2-bromo-4-fluoro-phenyl)-2-thiazol-2-yl-1,4-dihydropyrimidine-5-carboxylate], for which the EC50 in the series on HBV amounted to 66 nM.
Consider `CCC(CN1C[C@@H]2CN(CC3=C(C(=O)OC)[C@H](c4ccc(F)cc4Cl)N=C(c4nccs4)N3)CCN2C1=O)C(=O)O` (stereo partly drawn) [Example 75, 2-[[(8aS)-7-[[(4R)-4-(2-chloro-4-fluoro-phenyl)-5-methoxycarbonyl-2-thiazol-2-yl-1,4-dihydropyrimidin-6-yl]methyl]-3-oxo-5,6,8,8a-tetrahydro-1H-imidazo[1,5-a]pyrazin-2-yl]methyl]butanoic acid], for which the EC50 in the series with HBV amounted to 24 nM. The compound also yielded a solubility (thermodynamic) in the series “Lysa solubility” of more than 774 µg/mL.
`CCOC(=O)C1=C(CN2CCN3C(=O)N(CC(C)C)C[C@H]3[C@@H]2C(=O)O)NC(c2nccs2)=N[C@H]1c1cccc(F)c1Cl` (single isomer, unassigned) [Example 101A]: the EC50 with HBV was found to be 40 nM.
As for `CCOC(=O)C1=C(CN2CCN3C(=O)N([C@@H](C)CC(=O)O)C[C@@H]3C2)NC(c2nccs2)=N[C@H]1c1cccc(F)c1Cl` [Example 58, (R)-6-[(S)-2-((S)-2-Carboxy-1-methyl-ethyl)-3-oxo-hexahydro-imidazo[1,5-a]pyrazin-7-ylmethyl]-4-(2-chloro-3-fluoro-phenyl)-2-thiazol-2-yl-1,4-dihydro-pyrimidine-5-carboxylic acid ethyl ester], the EC50 in the series with HBV came out at 19 nM.
On to `COC(=O)C1=C(CN2CCN3C(=O)N(c4ccc(C(=O)O)nc4)CC3C2)NC(c2nccs2)=N[C@H]1c1ccc(F)cc1Cl` (mixture of isomers) [Example 95, 5-[7-[[(4R)-4-(2-chloro-4-fluoro-phenyl)-5-methoxycarbonyl-2-thiazol-2-yl-1,4-dihydropyrimidin-6-yl]methyl]-3-oxo-5,6,8,8a-tetrahydro-1H-imidazo[1,5-a]pyrazin-2-yl]pyridine-2-carboxylic acid], for which the EC50 in the series with HBV was 11 nM. In “Lysa solubility”, this compound had a solubility (thermodynamic) of 307 µg/mL (≈ 490 µM).
With `COC(=O)C1=C(CN2CCN3C(=O)OCCC3C2)NC(c2nccs2)=N[C@H]1c1ccc(F)cc1Cl` (stereo partly drawn) [Example 1, Methyl (4R)-4-(2-chloro-4-fluoro-phenyl)-6-[(6-oxo-1,3,4,8,9,9a-hexahydropyrazino[1,2-c][1,3]oxazin-2-yl)methyl]-2-thiazol-2-yl-1,4-dihydropyrimidine-5-carboxylate], in the series with HBV, the EC50 worked out at 104 nM.
Still for that read-out and setting: next, `COC(=O)C1=C(CN2CCN3C(=O)OC[C@H]3C2)NC(c2nccs2)=N[C@H]1c1ccc(F)cc1Cl` [Example 3, Methyl (4R)-6-[[(8aR)-3-oxo-5,6,8,8a-tetrahydro-1H-oxazolo[3,4-a]pyrazin-7-yl]methyl]-4-(2-chloro-4-fluoro-phenyl)-2-thiazol-2-yl-1,4-dihydropyrimidine-5-carboxylate]: 23 nM.
For `COC(=O)C1=C(CN2CCN3C(=O)N(C4(CC(=O)O)CC4)C[C@H]3C2)NC(c2nccs2)=N[C@H]1c1ccc(F)cc1Cl` [Example 46, 2-[1-[(8aR)-7-[[(4R)-4-(2-chloro-4-fluoro-phenyl)-5-methoxycarbonyl-2-thiazol-2-yl-1,4-dihydropyrimidin-6-yl]methyl]-3-oxo-5,6,8,8a-tetrahydro-1H-imidazo[1,5-a]pyrazin-2-yl]cyclopropyl]acetic acid], the 50% effective concentration (EC50) in the series on HBV came to 26 nM. Besides, the solubility (thermodynamic) in the series “Lysa solubility” was more than 744 µg/mL.
For the compound `CCOC(=O)C1=C(CN2CCN3C(=O)CCCC3C2)NC(c2nccs2)=N[C@H]1c1cccc(F)c1Cl` (stereo partly drawn) [Example 10, Ethyl (4R)-4-(2-chloro-3-fluoro-phenyl)-6-[(6-oxo-3,4,7,8,9,9a-hexahydro-1H-pyrido[1,2-a]pyrazin-2-yl)methyl]-2-thiazol-2-yl-1,4-dihydropyrimidine-5-carboxylate], the EC50 in the series with HBV amounted to 57 nM.
On to `COC(=O)C1=C(CN2CCN3C(=O)OC(C)(C)[C@@]3(CC(=O)O)C2)NC(c2nccs2)=N[C@H]1c1ccc(F)cc1Cl` (single isomer, unassigned) [Example 90B], for which the EC50 with HBV worked out at 300 nM.
As for `CCOC(=O)C1=C(CN2CCN3C(=O)CC[C@@H]3C2)NC(c2nccs2)=N[C@H]1c1ccc(F)cc1Br` [Example 8, Ethyl (4R)-6-[[(8aR)-6-oxo-1,3,4,7,8,8a-hexahydropyrrolo[1,2-a]pyrazin-2-yl]methyl]-4-(2-bromo-4-fluoro-phenyl)-2-thiazol-2-yl-1,4-dihydropyrimidine-5-carboxylate], the concentration for a half-maximal effect (EC50) with HBV worked out at 11 nM.
In the case of `CCOC(=O)C1=C(CN2CCN3C(=O)CC[C@@H]3C2)NC(c2nccs2)=N[C@H]1c1ccc(F)c(F)c1` [Example 9, Ethyl (4 S)-6-[[(8aR)-6-oxo-1,3,4,7,8,8a-hexahydropyrrolo[1,2-a]pyrazin-2-yl]methyl]-4-(3,4-difluorophenyl)-2-thiazol-2-yl-1,4-dihydropyrimidine-5-carboxylate], the concentration giving a half-maximal response (EC50) in the series with HBV came out at 64 nM.
As for `COC(=O)C1=C(CN2CCN3C(=O)N(C(C)(C)C)C[C@H]3[C@@H]2C(=O)O)NC(c2nccs2)=N[C@H]1c1ccc(F)c(F)c1C` (single isomer, unassigned) [Example 88A], in the series on HBV, the EC50 amounted to 677 nM.
As for `COC(=O)C1=C(CN2CCN3C(=O)NC(=O)[C@@H]3C2)NC(c2nccs2)=N[C@H]1c1ccc(F)cc1Cl` [Example 16, Methyl (4R)-6-[[(8aS)-1,3-dioxo-5,6,8,8a-tetrahydroimidazo[1,5-a]pyrazin-7-yl]methyl]-4-(2-chloro-4-fluoro-phenyl)-2-thiazol-2-yl-1,4-dihydropyrimidine-5-carboxylate], the 50% effective concentration (EC50) in the series with HBV was found to be 41 nM.

Usually EC50 stands for the midpoint of the concentration-response curve. In general, solubility (thermodynamic) refers to the concentration in solution at equilibrium with solid.
